Ki, half-life and melting point data for 2 molecules are collected here from paper PMC7956643, “Synthesis of Novel Pyrido[1,2-c]pyrimidine Derivatives with 6-Fluoro-3-(4-piperidynyl)-1,2-benzisoxazole Moiety as Potential SSRI and 5-HT1A Receptor Ligands” (International Journal of Molecular Sciences, 2021).

For data set [1], the target named is T1, human 5-HT1A receptor (Homo sapiens, UniProt P08908).
T1 construct: purchased PerkinElmer; host or cells: CHO-K1 cells, stably transfected
T1 sequence (P08908 1-422): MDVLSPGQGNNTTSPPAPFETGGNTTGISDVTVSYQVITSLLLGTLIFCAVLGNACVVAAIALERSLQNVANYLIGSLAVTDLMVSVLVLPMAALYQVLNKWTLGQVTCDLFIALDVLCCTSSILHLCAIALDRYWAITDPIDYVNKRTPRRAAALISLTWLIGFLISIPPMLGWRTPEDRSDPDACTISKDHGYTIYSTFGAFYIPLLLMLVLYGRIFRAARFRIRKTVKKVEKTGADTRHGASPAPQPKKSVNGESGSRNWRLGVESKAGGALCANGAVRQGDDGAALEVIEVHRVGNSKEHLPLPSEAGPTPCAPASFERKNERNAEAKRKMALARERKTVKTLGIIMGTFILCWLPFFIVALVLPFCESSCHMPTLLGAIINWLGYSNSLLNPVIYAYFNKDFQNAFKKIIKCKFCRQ
As to the kind of experiment: 5-HT1A radioligand binding assay. The note with it: [3H]-8-OH-DPAT 1 nM; membranes from CHO-K1 cells with human 5-HT1A receptor. The protocol: Radioligand binding was performed using membranes from CHO-K1 cells stably transfected with the human 5-HT1A receptor (PerkinElmer, Fremont, CA, USA). All assays were carried out in duplicate. Then, 50 µL working solution of the tested compounds, 50 µL [^3H]-8-OH-DPAT (final concentration 1 nM) and 150 µL diluted membranes (20 µg protein per well) prepared in assay buffer (50 mM Tris, pH 7.4, 10 mM MgSO4, 0.5 mM EDTA, 0.1% ascorbic acid) were transferred to a polypropylene 96-well microplate using 96-wells pipetting station Rainin Liquidator (MettlerToledo, Columbus, OH, USA). […] The reaction was terminated by rapid filtration through GF/B filter mate, presoaked with 0.5% polyethyleneimine for 30 min. Ten rapid washes with 200 µL 50 mM Tris buffer (4 °C, pH 7.4) were performed using an automated harvester system—Harvester-96 MACH III FM (Tomtec, Hamden, CT, USA). […] Data were fitted to a one-site curve-fitting equation with Prism 6 (GraphPad Software, San Diego, CA, USA) and Ki values were estimated from the Cheng–Prusoff equation.

The nature of data set [2]: Metabolic stability in pooled human liver microsomes. In kind it is in vitro ADME. The note with it: pH 7.4, pooled HLMs 1 mg/mL, NADPH, 1 µM compound, 37 °C. The protocol:
Stock solutions of studied compounds were prepared at concentration of 100 µM in 1:1 acetonitrile/water mixture. Incubation mixes consisted 1 μM of a studied compound, 100 µM of NADPH in phosphate buffer and 1 mg/mL of pooled HLMs (Sigma-Aldrich, St. Louis, MO, USA) in potassium phosphate buffer (0.1 M, pH 7.4). Incubation was carried out in 96-well plates at 37 °C. Incubation mixtures (excluding compound solution) were subjected to 5 min preincubations, and started by addition of 10 µL of compound stock solution. After 0, 5, 10, 15, and 30 min, 25 µL samples of incubation reaction were added to the equal volume of ice-cold acetonitrile containing 1 µM of IS (buspirone hydrochloride). Control incubations were performed without NADPH to assess possible chemical instability. All samples were immediately centrifuged (10 min, 10,000 rpm) and the resulting supernatant was directly subjected to LC-MS analysis.
LC-MS analysis was performed on an Agilent 1260 system coupled to SingleQuad 6120 mass spectrometer (Agilent Technologies, Santa Clara, CA, USA). A Poroshell C18 EC120 column (3.0 × 100 mm^2, 2.7 μm, Agilent Technologies, Santa Clara, CA, USA) was used in reversed-phase mode with gradient elution starting with 90% of phase A (0.1% formic acid in deionised water) and 10% of phase B (0.1% formic acid in acetonitrile). […]
On the technique in general: Liver microsomes are a subcellular fraction often used to study metabolism.

Data set [3] concerns the target T2, 5-HT7 receptors (Homo sapiens, UniProt P34969).
T2 construct: expressed in transfected cells
Briefly: 5-HT7 radioligand binding assay. The note with it: [3H]-5-CT; HEK293 cells, human receptor. The procedure: (§1) In vitro radioligand binding assays for 5-HT2A, 5-HT6, 5-HT7 and D2 receptors were carried out using methods published by Zajdel et al.. For the assays, HEK293 cell cultures stably expressing the investigated human receptors were used. Cell pellets were thawed and homogenized in 20 vol of assay buffer using an Ultra Turrax tissue homogenizer, then centrifuged twice at 35000 g for 20 min at 4 °C, with incubation for 15 min at 37 °C in between. The composition of the assay buffers was as follows: for 5-HT2A receptors—50 mM Tris-HCl, 0.1 mM EDTA, 4 mM MgCl2 and 0.1% ascorbate; for 5-HT6 receptors—50 mM Tris-HCl, 0.5 mM EDTA, 4 mM MgCl2; for 5-HT7 receptors—50 mM Tris-HCl, 4 mM MgCl2, 10 µM pargyline and 0.1% ascorbate; for D2 receptors—50 mM Tris-HCl, 1 mM EDTA, 4 mM MgCl2, 120 mM NaCl, 5 mM KCl, 1.5 mM CaCl2 and 0.1% ascorbate. All assays were incubated in total volume of […] in 96-well microtitre plates for 1 h at 37 °C, except for 5-HT2A receptors which were incubated at room temperature for 1.5 h. The process of equilibration was terminated by rapid filtration through Unifilter plates with a 96-well cell harvester, and radioactivity retained on the filters was quantified on a Microbeta plate reader (PerkinElmer, USA). For displacement studies, the assay samples contained as radioligands (PerkinElmer): 2 nM [^3H]-ketanserin (spec. act. 53.4 Ci/mmol) for 5-HT2A receptors; 2 nM [^3H]-LSD (spec. act. 83.6 Ci/mmol) for 5-HT6 receptors; 0.6 nM [^3H]-5-CT (spec. act. 39.2 Ci/mmol) for 5-HT7 receptors and [^3H]-raclopride (spec. act. 76.0 Ci/mmol) for D2 receptors. […] Each compound was tested in triplicate at 7–8 concentrations (10^-11-10^-4 M). The inhibition constants (Ki) were calculated from the Cheng–Prusoff equation [46]. Results were expressed as means of at least two separate experiments.

The target in data set [4] is T3, D2 receptors (Homo sapiens, UniProt P14416).
T3 construct: expressed in transfected cells
T3 sequence (P14416 whole entry): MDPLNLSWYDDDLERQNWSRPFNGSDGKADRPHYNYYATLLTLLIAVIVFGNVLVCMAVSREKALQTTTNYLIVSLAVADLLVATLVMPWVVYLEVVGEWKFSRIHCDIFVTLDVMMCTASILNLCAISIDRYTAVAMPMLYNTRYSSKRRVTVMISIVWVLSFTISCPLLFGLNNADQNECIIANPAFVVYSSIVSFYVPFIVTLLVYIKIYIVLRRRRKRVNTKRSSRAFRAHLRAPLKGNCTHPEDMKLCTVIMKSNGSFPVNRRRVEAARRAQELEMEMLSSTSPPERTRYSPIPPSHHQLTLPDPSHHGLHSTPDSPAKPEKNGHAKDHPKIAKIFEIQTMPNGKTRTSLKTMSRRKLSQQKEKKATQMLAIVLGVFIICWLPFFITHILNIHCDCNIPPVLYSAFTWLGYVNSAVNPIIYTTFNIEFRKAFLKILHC
Briefly: D2 radioligand binding assay. The note with it: [3H]-raclopride; HEK293 cells, human receptor. The protocol:
as §1

Data set [5] deals with T4, 5-HT6 receptors (Homo sapiens, UniProt P50406).
T4 construct: expressed in transfected cells
T4 sequence (P50406 whole entry): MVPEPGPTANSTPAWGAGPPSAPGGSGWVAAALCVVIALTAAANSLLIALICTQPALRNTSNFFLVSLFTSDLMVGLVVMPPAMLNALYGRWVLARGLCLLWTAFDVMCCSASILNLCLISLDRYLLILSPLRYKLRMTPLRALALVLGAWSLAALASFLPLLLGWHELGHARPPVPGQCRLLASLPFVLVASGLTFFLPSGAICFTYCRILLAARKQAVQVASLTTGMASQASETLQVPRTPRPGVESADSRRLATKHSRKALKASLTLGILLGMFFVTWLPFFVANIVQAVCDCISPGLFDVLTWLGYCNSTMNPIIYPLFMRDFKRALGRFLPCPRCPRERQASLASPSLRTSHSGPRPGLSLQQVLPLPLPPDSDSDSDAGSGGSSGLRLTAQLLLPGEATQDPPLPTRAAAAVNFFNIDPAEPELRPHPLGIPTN
Briefly: 5-HT6 radioligand binding assay. The note with it: [3H]-LSD; HEK293 cells, human receptor. The protocol:
as §1

T2 sequence (P34969 whole entry): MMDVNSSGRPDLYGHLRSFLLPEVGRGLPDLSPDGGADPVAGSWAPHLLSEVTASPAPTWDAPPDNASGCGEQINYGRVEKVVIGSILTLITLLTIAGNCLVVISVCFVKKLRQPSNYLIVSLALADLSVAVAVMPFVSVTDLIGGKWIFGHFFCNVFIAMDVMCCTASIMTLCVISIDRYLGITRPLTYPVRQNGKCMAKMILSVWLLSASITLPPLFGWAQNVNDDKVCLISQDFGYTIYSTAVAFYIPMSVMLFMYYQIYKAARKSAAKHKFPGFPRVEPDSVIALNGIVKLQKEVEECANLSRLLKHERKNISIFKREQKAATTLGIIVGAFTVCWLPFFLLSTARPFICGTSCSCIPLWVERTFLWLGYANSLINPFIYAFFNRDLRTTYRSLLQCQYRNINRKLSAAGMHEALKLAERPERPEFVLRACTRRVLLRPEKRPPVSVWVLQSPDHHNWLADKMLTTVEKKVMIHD

The term Ki denotes the equilibrium dissociation constant of an inhibitor or competing ligand from its target. A low value points to a stronger hold on the target. Broadly, the half-life is the time needed for the level to fall by half in the phase considered. A lower half-life goes with fast loss. By melting point is commonly meant the temperature, or range, at which the solid turns liquid. `O=c1c(-c2ccccc2)c2ccccn2c(=O)n1CCCCN1CCC(c2noc3cc(F)ccc23)CC1` [Compound 6a, 4-Phenyl-2-{4-[4-(6-fluoro-1,2-benzoxazol-3-yl)-1-piperidyl]butyl}-pyrido[1,2-c]pyrimidine-1,3-dione] had a melting point of 132 to 133 °C. Moreover, the affinity in data set [1], expressed as Ki, was 0.023 ± 0.001 µM. This molecule also returned a half-life at 1 µM in data set [2] of 3.61 min. In data set [3], this molecule came in with a Ki of 0.062 ± 0.005 µM. The same molecule gave a Ki in data set [4] of 0.007 ± 0.002 µM. This molecule also returned a Ki in data set [5] of 0.376 ± 0.058 µM.
`O=c1c(-c2ccccc2Cl)c2ccccn2c(=O)n1CCCCN1CCC(c2noc3cc(F)ccc23)CC1` [Compound 6d, 4-(2-Chlorophenyl)-2-{4-[4-(6-fluoro-1,2-benzoxazol)-1-piperidyl]butyl}-pyrido[1,2-c]pyrimidine-1,3-dione]: the melting point fell in the range of 69 to 74 °C. The Ki in data set [1] worked out at 0.011 ± 0.0014 µM. In data set [2], the half-life at 1 µM stood at 3.2 min. This molecule also registered a Ki in data set [3] of 0.109 ± 0.014 µM. The same molecule returned a Ki in data set [4] of 0.009 ± 0.002 µM. The affinity in data set [5] corresponds to a Ki of 0.709 ± 0.135 µM.
